Assay results from ChEMBL document CHEMBL1201862, “PubChem BioAssay data set” (2004).
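Cultured in 96-well plates, cells were exposed to test compound for 48 hours across five concentrations. GI50 is the concentration that inhibits growth by half.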 Activity calls are given as the source filed them. Rule as the data show it: active = GI50 up to about 1.1 µM and inactive = higher.

Tests used:
Experiment in all cases: DTP human tumour cell line panel, 48 h
[1] = test system: CAKI-1
[2] = test system: 786-0
[3] = test system: A549
[4] = test system: COLO 205
[5] = test system: SNB-19
[6] = test system: SW-620
[7] = test system: EKVX
[8] = test system: SNB-75
[9] = test system: A498
[10] = test system: OVCAR-4
[11] = test system: SF-295
[12] = test system: OVCAR-3
[13] = test system: SF-268
[14] = test system: SK-MEL-5
[15] = test system: LOX IMVI

| SMILES | GI50 [1] | GI50 [2] | GI50 [3] | GI50 [4] | GI50 [5] | GI50 [6] | GI50 [7] | GI50 [8] | GI50 [9] | GI50 [10] | GI50 [11] | GI50 [12] | GI50 [13] | GI50 [14] | GI50 [15] |
| --- | --- | --- | --- | --- | --- | --- | --- | --- | --- | --- | --- | --- | --- | --- | --- |
| Cn1c2ccccc2c2cc(-c3ccccc3)c3c(c21)C(=O)c1ccccc1C3=O | 28.3 µM (inactive) | 16.9 µM (inactive) | 20.4 µM (inactive) | 31.5 µM (inactive) | 61.1 µM (inactive) | 18.8 µM (inactive) | > 10 µM (inactive) | 34.4 µM (inactive) | > 100 µM (inactive) | 14.5 µM (inactive) | 21.5 µM (inactive) | 11.9 µM (inactive) | 19.1 µM (inactive) |  |  |
| Cc1ccc([N+](=O)[O-])cc1NC(=O)C(=O)Cc1nc2ccc(C(=O)c3ccccc3)cc2nc1O | > 100 µM (inactive) | > 100 µM (inactive) | > 100 µM (inactive) | > 100 µM (inactive) | > 100 µM (inactive) | > 100 µM (inactive) | > 100 µM (inactive) | 56.5 µM (inactive) |  | > 100 µM (inactive) | > 100 µM (inactive) | > 100 µM (inactive) |  | > 100 µM (inactive) | > 100 µM (inactive) |
| C=C1C(=O)OC2CC3(C)C=CC(=O)C(=C)C3CC12 (stereo not given) | 1.36 µM (inactive) | 1.76 µM (inactive) | 5.62 µM (inactive) | 1.63 µM (inactive) | 8.55 µM (inactive) | 1.04 µM (active) | 2.77 µM (inactive) | 3.73 µM (inactive) | 7.46 µM (inactive) | 2.18 µM (inactive) | 13.9 µM (inactive) | 2.32 µM (inactive) | 2.59 µM (inactive) | 1.72 µM (inactive) | 0.516 µM (active) |
| CN(C(=O)c1ccc(Cl)cc1)C(=S)N1CCN(c2ccccn2)CC1 | > 100 µM (inactive) | > 100 µM (inactive) | > 100 µM (inactive) | > 100 µM (inactive) | > 100 µM (inactive) | > 100 µM (inactive) |  | > 100 µM (inactive) |  | > 100 µM (inactive) | > 100 µM (inactive) | > 100 µM (inactive) | > 100 µM (inactive) | > 100 µM (inactive) | > 100 µM (inactive) |
| COc1ccccc1NC(=O)CC(=O)N/N=C/c1ccc(N(CCC#N)S(=O)(=O)c2ccccc2)cc1 | > 100 µM (inactive) | > 100 µM (inactive) | > 100 µM (inactive) | > 100 µM (inactive) | > 100 µM (inactive) | > 100 µM (inactive) | > 100 µM (inactive) | > 100 µM (inactive) |  | > 100 µM (inactive) | > 100 µM (inactive) | > 100 µM (inactive) | > 100 µM (inactive) | > 100 µM (inactive) | > 100 µM (inactive) |
| COC(=O)C1=Cc2c(cc(OC)c(OC)c2OC)[C@H](c2ccc(OC)c(OC)c2OC)C1C(=O)OC (stereo not given in full) | > 100 µM (inactive) | > 100 µM (inactive) | > 100 µM (inactive) | 55.7 µM (inactive) | > 100 µM (inactive) | > 100 µM (inactive) | > 100 µM (inactive) | > 100 µM (inactive) | > 100 µM (inactive) | > 100 µM (inactive) | 65.9 µM (inactive) | > 100 µM (inactive) | > 100 µM (inactive) | > 100 µM (inactive) | > 100 µM (inactive) |
| CCCCN(CCCC)CC(C(=O)Nc1ccc([N+](=O)[O-])cc1[N+](=O)[O-])/C(C)=N\NC(=O)c1ccncc1 (stereo not given) | > 100 µM (inactive) | > 100 µM (inactive) | > 100 µM (inactive) | > 100 µM (inactive) | > 100 µM (inactive) | > 100 µM (inactive) | > 100 µM (inactive) | 76.6 µM (inactive) | > 100 µM (inactive) | > 100 µM (inactive) | > 100 µM (inactive) | > 100 µM (inactive) | > 100 µM (inactive) | > 100 µM (inactive) | > 100 µM (inactive) |
| CCOP(=O)(OCC)C(C(=O)OC)C(=O)C(=O)Nc1cccc([N+](=O)[O-])c1 (stereo not given) | > 100 µM (inactive) | > 100 µM (inactive) | > 100 µM (inactive) | > 100 µM (inactive) | > 100 µM (inactive) | > 100 µM (inactive) | > 100 µM (inactive) | > 100 µM (inactive) | > 100 µM (inactive) | > 100 µM (inactive) | > 100 µM (inactive) | > 100 µM (inactive) | > 100 µM (inactive) | > 100 µM (inactive) | > 100 µM (inactive) |
| Nc1ccn(CCNCCn2cnc3nc(N)[nH]c(=O)c32)c(=O)n1 |  | > 100 µM (inactive) | > 100 µM (inactive) | > 100 µM (inactive) | > 100 µM (inactive) | > 100 µM (inactive) | > 100 µM (inactive) |  | > 100 µM (inactive) | > 100 µM (inactive) | > 100 µM (inactive) | > 100 µM (inactive) | > 100 µM (inactive) |  | > 100 µM (inactive) |
| COC(=O)C1C(/C=C/c2ccoc2)ON2CCC[C@@H]12 (stereo not given in full) | > 100 µM (inactive) | > 100 µM (inactive) | > 100 µM (inactive) | > 100 µM (inactive) | > 100 µM (inactive) | > 100 µM (inactive) | > 100 µM (inactive) | 87.5 µM (inactive) |  | > 100 µM (inactive) | > 100 µM (inactive) | > 100 µM (inactive) | > 100 µM (inactive) |  | > 100 µM (inactive) |
| Oc1ccc2c(O)cc(-c3ccccc3)nc2c1 | 24.4 µM (inactive) | 31.2 µM (inactive) | 23.1 µM (inactive) | 17 µM (inactive) | 32.4 µM (inactive) | 16.4 µM (inactive) | 35.9 µM (inactive) | 22.1 µM (inactive) | 32.1 µM (inactive) | 26 µM (inactive) | 75 µM (inactive) |  | 32.4 µM (inactive) | 30.1 µM (inactive) | 17.5 µM (inactive) |
| CN(C)c1ccc(C(=C(c2ccc(N(C)C)cc2)c2ccc(N(C)C)cc2)c2ccc(N(C)C)cc2)cc1 | 12.4 µM (inactive) | 11.4 µM (inactive) | 16.3 µM (inactive) | 0.568 µM (active) | 13.8 µM (inactive) | 1.87 µM (inactive) | 18.7 µM (inactive) | 13.5 µM (inactive) | 18.6 µM (inactive) | 20.1 µM (inactive) | 13.9 µM (inactive) | 0.31 µM (active) | 21.5 µM (inactive) | 16.3 µM (inactive) | 13.5 µM (inactive) |
| C[n+]1c2n(c3nc(N)[nH]c(=O)c31)C1OC(C2)C(O)C1O (stereo not given) | > 100 µM (inactive) | > 100 µM (inactive) | > 100 µM (inactive) | > 100 µM (inactive) | > 100 µM (inactive) | > 100 µM (inactive) | > 100 µM (inactive) | > 100 µM (inactive) | > 100 µM (inactive) | > 100 µM (inactive) | > 100 µM (inactive) | > 100 µM (inactive) | > 100 µM (inactive) | > 100 µM (inactive) | > 100 µM (inactive) |
| COc1ccc(-c2c(N)[n+]([O-])c3ccccc3[n+]2[O-])cc1OC | > 100 µM (inactive) | > 100 µM (inactive) | > 100 µM (inactive) | > 100 µM (inactive) | > 100 µM (inactive) | > 100 µM (inactive) | > 100 µM (inactive) | 65.9 µM (inactive) | > 100 µM (inactive) | > 100 µM (inactive) | > 100 µM (inactive) | > 100 µM (inactive) | > 100 µM (inactive) | > 100 µM (inactive) |  |
| CC1(C)OCN(c2ccc(S(N)(=O)=O)cc2)Cn2c1nc1ccccc12 |  | > 100 µM (inactive) | > 100 µM (inactive) | > 100 µM (inactive) | > 100 µM (inactive) | > 100 µM (inactive) | > 100 µM (inactive) | > 100 µM (inactive) | > 100 µM (inactive) | > 100 µM (inactive) | > 100 µM (inactive) | > 100 µM (inactive) | > 100 µM (inactive) |  | > 100 µM (inactive) |
| Cc1ccc(/C=C/C(=O)c2sc(C(N)=S)nc2C)cc1 | > 100 µM (inactive) | > 100 µM (inactive) | > 100 µM (inactive) | > 100 µM (inactive) |  | > 100 µM (inactive) | > 100 µM (inactive) | > 100 µM (inactive) | > 100 µM (inactive) |  | > 100 µM (inactive) | > 100 µM (inactive) | > 100 µM (inactive) | 45.8 µM (inactive) | > 100 µM (inactive) |
| Cc1ccc(C(c2c(O)c3ccccc3n(-c3ccccc3)c2=O)c2c(O)c3ccccc3n(-c3ccccc3)c2=O)cc1 | > 100 µM (inactive) | 38.1 µM (inactive) | > 100 µM (inactive) | > 100 µM (inactive) | > 100 µM (inactive) | > 100 µM (inactive) | 35.3 µM (inactive) |  |  | > 100 µM (inactive) |  | > 100 µM (inactive) | 82.2 µM (inactive) | > 100 µM (inactive) | > 100 µM (inactive) |
| C=CC(=O)N1C/C(=C\c2ccc(Cl)c(Cl)c2)C(=O)/C(=C/c2ccc(Cl)c(Cl)c2)C1 | 0.244 µM (active) | 0.0579 µM (active) |  | 0.112 µM (active) |  | 0.0607 µM (active) |  | 0.187 µM (active) | 0.63 µM (active) | 0.0318 µM (active) | 0.233 µM (active) | 0.0865 µM (active) | 0.104 µM (active) | 0.478 µM (active) | 0.288 µM (active) |
| CC(C)(C)C(C#N)(C#N)c1ccc(C(C#N)(C#N)C(C)(C)C)nn1 | 83 µM (inactive) | 74 µM (inactive) | > 100 µM (inactive) | > 100 µM (inactive) | 63.4 µM (inactive) | > 100 µM (inactive) | > 100 µM (inactive) | 23.6 µM (inactive) |  | 89.7 µM (inactive) | > 100 µM (inactive) | > 100 µM (inactive) | 86.7 µM (inactive) | > 100 µM (inactive) | > 100 µM (inactive) |
